“And” between values parts separate entries of the source, which are not always exact repeats. Identical values can stand only once.
Experiment: Safety and tolerability of IV 5-HTP continuous infusion
Type: in vivo, human
Experimental: Methods: Safety and tolerability of the IV 5-HTP continuous infusion were assessed during the 24 hr administration of IV 5-HTP infusion (see Example 5) or placebo and approximately 24 hr after end of the infusion. Safety and tolerability of the IV 5-HTP infusion were assessed by monitoring of adverse events (AEs), standard clinical safety laboratory tests, electrocardiograms (ECG), vital signs, and clinical scales of suicidality. The safety population included all subjects. Vital sign measurements included systolic blood pressure (mmHg), diastolic blood pressure (mmHg), heart rate (beats/min), respiratory rate (breaths/min), and oral temperature. Twelve-lead electrocardiogram measurements were performed in triplicate. The recorded parameters included heart rate (beats/min), PR (msec), QRS (msec), and QTcF (msec). Assessments were rated as normal, not clinically significant, or clinically significant. Clinical laboratory tests included a complete blood count, chemistry panel, coagulation panel, and thyroid stimulating hormone.
Statistics: Descriptive statistics (n, mean, SD, minimum, and maximum) for absolute values and changes from baseline were calculated.

[1] = 2 mg/kg/24 hr ramp rate infusion
[2] = ramp flow rate, 1 mg/kg/24 hr, subjects with event/subjects

N[C@@H](Cc1c[nH]c2ccc(O)cc12)C(=O)O [5-HTP, 5-hydroxytryptophan]
subjects in whom AEs occurred (1 mg/kg/24 hr, ramp flow rate infusion): 2 subjects
mild AEs: chills, subjects with event [1]: 1 and 1/6
mild AEs: dizziness, subjects with event [1]: 1 and 1/6
5-HTP plasma exposure with which incidence of AEs was more commonly associated (all cohorts): > 100 ng/mL
severity of all AEs (all cohorts): mild-to-moderate
safety findings in clinical safety laboratory tests, vital signs, 12-lead electrocardiograms (all cohorts, 24 hr IV 5-HTP infusion): no safety findings
serious or severe AEs related to the IV 5-HTP infusion (any subjects, all cohorts): No serious or severe AEs
AEs (constant flow rate, 1 mg/kg/24 hr group): no AEs
concentration at 1 h (human, plasma, intravenous, constant rate 3 mg/kg/24 hr, read-out: plasma 5-HTP levels within 1 h in the subjects who discontinued): 250 to 300 ng/mL
5-HTP plasma levels associated with manifestation of AEs (ramp flow rate 1 mg/kg/24 hr, at highest flow rate 55.55 ml/h): 112 to 266 ng/mL
mild AEs: nausea [2]: 1/5
mild AEs: vomiting [2]: 1/5
moderate AEs: nausea [2]: 1/5
moderate AEs: vomiting [2]: 1/5

From patent publication US11779567B2, “Method for optimizing 5-hydroxytryptamine function in the brain for therapeutic purposes” (Evecxia Therapeutics, Inc., priority 2021, dated 2023)
